Source: patent US9662323B2, “Compounds having muscarinic receptor antagonist and beta2 adrenergic receptor agonist activity” (CHIESI FARMACEUTICI S.p.A., priority 2015, dated 2017)
pKi: −log10 of the molar value.

Key:
Human M3 receptor = target: T1, Human M3 receptor (Homo sapiens, UniProt P20309); assay: M3 Receptor Radioligand Binding Assay; details: human M3 receptor membranes, [3H]-N-methyl scopolamine; read-out: M3 binding affinity (Ki class)
T1 construct: purchased Perkin Elmer
How it was run: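 Radioligand binding with 0.5% (v/v) final DMSO, incubated 2 h at room temperature with shaking. Membranes were collected on GF/C filters pre-treated with 0.5% polyethyleneimine, washed four times with assay buffer, and counted by scintillation.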

Human β2 adrenoceptor = target: T2, Human β2 adrenoceptor (Homo sapiens, UniProt P07550); assay: β2 Adrenoceptor Radioligand Binding Assay; details: human β2 adrenoceptor membranes, 125-I Cyanopindolol; read-out: B2 binding affinity (Ki class)
T2 construct: purchased Perkin Elmer
How it was run: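 Membranes were incubated 1 h at room temperature in 25 mM HEPES, 0.5% BSA, 1 mM EDTA, 0.02% ascorbic acid, pH 7.4, with 0.5% DMSO final. Bound radioligand was collected by GF/C filtration and counted by scintillation. IC50 values from competition curves were converted to Ki by Cheng–Prusoff.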

T2 sequence (P07550 whole entry): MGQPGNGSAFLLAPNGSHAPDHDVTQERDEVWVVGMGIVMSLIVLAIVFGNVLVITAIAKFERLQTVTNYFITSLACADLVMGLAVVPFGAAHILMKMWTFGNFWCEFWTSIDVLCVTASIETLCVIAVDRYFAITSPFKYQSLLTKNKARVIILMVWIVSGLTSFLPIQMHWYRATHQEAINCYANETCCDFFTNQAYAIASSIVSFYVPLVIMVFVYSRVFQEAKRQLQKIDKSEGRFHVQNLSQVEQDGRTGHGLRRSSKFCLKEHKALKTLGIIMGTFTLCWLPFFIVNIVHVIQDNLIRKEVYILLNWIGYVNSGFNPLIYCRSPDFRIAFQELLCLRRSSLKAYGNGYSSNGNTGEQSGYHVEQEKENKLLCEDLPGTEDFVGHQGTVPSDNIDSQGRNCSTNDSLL
T1 sequence (P20309 whole entry): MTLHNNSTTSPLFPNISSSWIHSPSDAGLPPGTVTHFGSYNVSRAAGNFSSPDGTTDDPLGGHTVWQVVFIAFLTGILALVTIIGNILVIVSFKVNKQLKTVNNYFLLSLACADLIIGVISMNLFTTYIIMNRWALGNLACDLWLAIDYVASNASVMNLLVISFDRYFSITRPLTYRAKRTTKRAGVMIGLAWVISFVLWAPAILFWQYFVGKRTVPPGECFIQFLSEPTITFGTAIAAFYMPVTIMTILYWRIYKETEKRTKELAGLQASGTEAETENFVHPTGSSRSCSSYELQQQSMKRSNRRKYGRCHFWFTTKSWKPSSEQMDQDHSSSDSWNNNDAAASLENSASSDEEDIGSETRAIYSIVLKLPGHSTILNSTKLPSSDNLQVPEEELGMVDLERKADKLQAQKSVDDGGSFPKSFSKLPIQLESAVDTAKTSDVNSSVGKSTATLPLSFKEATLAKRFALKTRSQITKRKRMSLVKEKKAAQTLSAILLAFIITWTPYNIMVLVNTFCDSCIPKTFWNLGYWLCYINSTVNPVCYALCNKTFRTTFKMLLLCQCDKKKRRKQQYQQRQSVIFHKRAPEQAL

Q: How did the pKi (Human M3 receptor) turn out when `COC(=O)N(Cc1ccc(CNC[C@H](O)c2ccc(O)c3[nH]c(=O)ccc23)cc1)Cc1ccc(C(=O)N2CCC(C(=O)O[C@H]3CN4CCC3CC4)(c3ccccc3)CC2)cc1` [Compound 62, (R)-Quinuclidin-3-yl 1-(4-(((4-((((R)-2-hydroxy-2-(8-hydroxy-2-oxo-1,2-dihydroquinolin-5-yl)ethyl)amino)methyl)benzyl)(methoxycarbonyl)amino)-methyl)benzoyl)-4-phenylpiperidine-4-carboxylate] was run?
A: Its pKi is over 9.00.

Q: What about the pKi (Human β2 adrenoceptor) of the same compound?
A: Its pKi is 8.00 to 9.00.

Q: How did the pKi (Human M3 receptor) turn out when `CNC(=O)N(Cc1ccc(CNC[C@H](O)c2ccc(O)c3[nH]c(=O)ccc23)cc1)Cc1ccc(C(=O)N2CCC(C(=O)O[C@H]3CN4CCC3CC4)(c3ccccc3)CC2)cc1` [Compound 63, (R)-Quinuclidin-3-yl 1-(4-((1-(4-((((R)-2-hydroxy-2-(8-hydroxy-2-oxo-1,2-dihydroquinolin-5-yl)ethyl)amino)methyl)benzyl)-3-methylureido)methyl)benzoyl)-4-phenylpiperidine-4-carboxylate] was run?
A: The pKi was over 9.00.

Q: And the pKi (Human β2 adrenoceptor)?
A: Its pKi is 8.00 to 9.00.

Q: With `O=C(c1ccc(COCc2ccc(CNC[C@H](O)c3ccc(O)c4[nH]c(=O)ccc34)cc2)cc1)N1CCC(C(=O)O[C@H]2CN3CCC2CC3)(c2ccccc2)CC1` [Compound 64, (R)-Quinuclidin-3-yl 1-(4-(((4-((((R)-2-hydroxy-2-(8-hydroxy-2-oxo-1,2-dihydroquinolin-5-yl)ethyl)amino)methyl)benzyl)oxy)methyl)benzoyl)-4-phenylpiperidine-4-carboxylate] as the compound, how does the pKi (Human M3 receptor) read?
A: The pKi was over 9.00.

Q: What about the pKi (Human β2 adrenoceptor) of the same compound?
A: Its pKi is 8.00 to 9.00.
